PubChem BioAssay (NCI)
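Cells were grown in 96-well plates and exposed to each compound for 48 hours at five concentrations; endpoints were interpolated linearly between bracketing concentrations, or set to the highest concentration if not reached. At the GI50, growth is halved. TGI: concentration producing complete growth inhibition.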

Key:
Experiment in all cases: NCI-60 cell line screen, 48 h
[1] = test system: HCT-15 colon
[2] = test system: BT-549 breast
[3] = test system: MCF7 breast
[4] = test system: SF-539 CNS
[5] = test system: UO-31 renal
[6] = test system: HL-60(TB) leukemia
[7] = test system: SR leukemia
[8] = test system: SF-268 CNS
[9] = test system: NCI-H226 lung
[10] = test system: SF-295 CNS

Which results are given for CC(C)C[C@H](NC(=O)CCn1ccc2ccccc2c1=O)B(O)O?
GI50 [1]: 9.57 µM; TGI [1]: > 100 µM; GI50 [2]: 2.21 µM; TGI [2]: 17.1 µM; GI50 [3]: 4.35 µM; TGI [3]: > 100 µM; GI50 [4]: 1.61 µM; TGI [4]: 5.62 µM; GI50 [5]: 3.92 µM; TGI [5]: 35.3 µM; GI50 [6]: 2.69 µM; TGI [6]: 49.5 µM; GI50 [7]: 1.7 µM; TGI [7]: 28.9 µM; GI50 [8]: 5.69 µM; TGI [8]: 30.4 µM; GI50 [9]: 1.47 µM; TGI [9]: 3.24 µM; GI50 [10]: 3.77 µM; TGI [10]: 19.6 µM

With Nc1nc(N)c(CCCCc2ccccc2)c(N)n1 as the molecule, how does the TGI [1] read?
The TGI was > 100 µM.

What about the TGI [2] of the same molecule?
The TGI was > 100 µM.

What about the TGI [3] of the same molecule?
The TGI was > 100 µM.

What about the TGI [4] of the same molecule?
Its TGI is > 100 µM.

And the TGI [5]?
Its TGI is > 100 µM.

What about the TGI [6] of the same molecule?
The TGI was > 100 µM.

What about the TGI [7] of the same molecule?
The TGI was > 100 µM.

And the TGI [8]?
The TGI was > 100 µM.

What about the TGI [9] of the same molecule?
The TGI was > 100 µM.

What about the TGI [10] of the same molecule?
The TGI was > 100 µM.

For COc1ccc(Nc2ccnc(N3CCN(c4ccnc5cc(Cl)ccc45)CC3)n2)cc1, which GI50 [1] is on record?
Its GI50 is 0.83 µM.

And the TGI [1]?
Its TGI is > 100 µM.

And the GI50 [2]?
Its GI50 is 1.16 µM.

What about the TGI [2] of the same molecule?
Its TGI is 3.72 µM.

And the GI50 [3]?
The GI50 was 1.01 µM.

What about the TGI [3] of the same molecule?
Its TGI is 7.32 µM.

What about the GI50 [4] of the same molecule?
Its GI50 is 0.968 µM.

And the TGI [4]?
The TGI was 3.26 µM.

And the GI50 [5]?
The GI50 was 0.629 µM.

What about the TGI [5] of the same molecule?
The TGI was 4.29 µM.

What about the GI50 [6] of the same molecule?
The GI50 was 1.14 µM.

And the TGI [6]?
The TGI was 7.18 µM.

What about the GI50 [7] of the same molecule?
The GI50 was 0.601 µM.

And the TGI [7]?
The TGI was 6.88 µM.

And the GI50 [8]?
Its GI50 is 2.31 µM.

What about the TGI [8] of the same molecule?
The TGI was > 100 µM.

What about the GI50 [9] of the same molecule?
Its GI50 is 1.41 µM.

What about the TGI [9] of the same molecule?
Its TGI is 6.09 µM.

And the GI50 [10]?
Its GI50 is 0.267 µM.

What about the TGI [10] of the same molecule?
Its TGI is 1.08 µM.

How did the GI50 [1] turn out when O=C(NNS(=O)(=O)c1ccc(Cl)cc1Cl)c1cccnc1Nc1ccc(Cl)cc1 was run?
The GI50 was 33.4 µM.

What about the TGI [1] of the same molecule?
The TGI was > 100 µM.

And the GI50 [2]?
Its GI50 is 16.8 µM.

What about the TGI [2] of the same molecule?
The TGI was 35 µM.

What about the GI50 [3] of the same molecule?
Its GI50 is 35.2 µM.

And the TGI [3]?
Its TGI is > 100 µM.

What about the GI50 [4] of the same molecule?
The GI50 was 19 µM.

And the TGI [4]?
The TGI was 44.5 µM.

And the GI50 [5]?
Its GI50 is 37.2 µM.

What about the TGI [5] of the same molecule?
Its TGI is > 100 µM.

What about the GI50 [6] of the same molecule?
The GI50 was 23.8 µM.

And the TGI [6]?
Its TGI is 44.4 µM.

What about the GI50 [7] of the same molecule?
Its GI50 is 14.8 µM.

And the TGI [7]?
The TGI was 38.1 µM.

What about the GI50 [8] of the same molecule?
The GI50 was 36.5 µM.

And the TGI [8]?
Its TGI is > 100 µM.

And the GI50 [9]?
The GI50 was 23.9 µM.

What about the TGI [9] of the same molecule?
The TGI was 58.5 µM.

What about the GI50 [10] of the same molecule?
The GI50 was 30.2 µM.

What about the TGI [10] of the same molecule?
Its TGI is 77.7 µM.

How did the GI50 [1] turn out when CN1CCc2nc3sc(C(N)=O)c(N)c3c(-c3cccs3)c2C1 was run?
The GI50 was 3.31 µM.

And the TGI [1]?
Its TGI is > 100 µM.

What about the GI50 [2] of the same molecule?
The GI50 was 3.26 µM.

What about the TGI [2] of the same molecule?
Its TGI is 35.5 µM.

What about the GI50 [3] of the same molecule?
Its GI50 is 4.1 µM.

And the TGI [3]?
Its TGI is > 100 µM.

And the GI50 [4]?
The GI50 was 2.35 µM.

And the TGI [4]?
Its TGI is 6.79 µM.

What about the GI50 [5] of the same molecule?
Its GI50 is 3.47 µM.

And the TGI [5]?
Its TGI is > 100 µM.

And the GI50 [6]?
The GI50 was 2.5 µM.

And the TGI [6]?
The TGI was 6.97 µM.

What about the GI50 [7] of the same molecule?
The GI50 was 1.8 µM.

And the TGI [7]?
Its TGI is 7.31 µM.

And the GI50 [8]?
Its GI50 is 3.85 µM.

What about the TGI [8] of the same molecule?
Its TGI is > 100 µM.

What about the GI50 [9] of the same molecule?
Its GI50 is 3.16 µM.

What about the TGI [9] of the same molecule?
Its TGI is > 100 µM.

And the GI50 [10]?
Its GI50 is 3.61 µM.

And the TGI [10]?
Its TGI is > 100 µM.

CCc1c(C)nc2sc3c(N)ncnc3c2c1C was tested. Which GI50 [1] did it give?
Its GI50 is > 25 µM.

What about the TGI [1] of the same molecule?
Its TGI is > 25 µM.

What about the GI50 [2] of the same molecule?
The GI50 was > 25 µM.

And the TGI [2]?
Its TGI is > 25 µM.

What about the GI50 [3] of the same molecule?
Its GI50 is > 25 µM.

What about the TGI [3] of the same molecule?
Its TGI is > 25 µM.

What about the GI50 [4] of the same molecule?
The GI50 was > 25 µM.

What about the TGI [4] of the same molecule?
Its TGI is > 25 µM.

And the GI50 [5]?
Its GI50 is > 25 µM.

What about the TGI [5] of the same molecule?
Its TGI is > 25 µM.

What about the GI50 [6] of the same molecule?
The GI50 was > 25 µM.

What about the TGI [6] of the same molecule?
Its TGI is > 25 µM.

And the GI50 [7]?
The GI50 was > 25 µM.

What about the TGI [7] of the same molecule?
Its TGI is > 25 µM.

What about the GI50 [8] of the same molecule?
Its GI50 is > 25 µM.

And the TGI [8]?
Its TGI is > 25 µM.

And the GI50 [9]?
The GI50 was > 25 µM.

What about the TGI [9] of the same molecule?
The TGI was > 25 µM.

And the GI50 [10]?
The GI50 was > 25 µM.

And the TGI [10]?
The TGI was > 25 µM.

With CC(=O)O[C@@H]1C[C@@]2(C)[C@@H]3CC=C4[C@@H](C[C@H](O)C(=O)C4(C)C)[C@]3(C)C(=O)C[C@]2(C)[C@H]1[C@@](C)(O)C(=O)/C=C/C(C)(C)OC(C)=O as the molecule, how does the TGI [1] read?
Its TGI is 12.3 µM.

What about the TGI [2] of the same molecule?
Its TGI is 0.713 µM.

And the TGI [3]?
The TGI was > 100 µM.

And the TGI [4]?
Its TGI is 12.6 µM.

What about the TGI [5] of the same molecule?
The TGI was 0.881 µM.

And the TGI [6]?
Its TGI is > 20.1 µM.

What about the TGI [7] of the same molecule?
Its TGI is > 53.4 µM.

What about the TGI [8] of the same molecule?
Its TGI is > 41.9 µM.

And the TGI [9]?
Its TGI is 3.31 µM.

And the TGI [10]?
Its TGI is 34.1 µM.
